Assay results from patent publication US8680133B2, “Alkyl indole-3-carbinol-derived antitumor agents” (The Ohio State University Research Foundation, priority 2009, dated 2014).

Tests used:
Type in all cases: cell-based, human
OVCAR-5 = assay: NCI60 screening, Ovarian Cancer, OVCAR-5
M14 = assay: NCI60 screening, Melanoma, M14
U0-31 = assay: NCI60 screening, Renal Cancer, U0-31
[1] = Homo sapiens, read-out: LC50 (the source's name)

Cc1ccc2c(c1)c(CO)cn2S(=O)(=O)c1ccc(Cl)c([N+](=O)[O-])c1 [OSU-A9M, [1-(4-chloro-3-nitro-benzenesulfonyl)-5-methyl-1H-indol-3-yl]-methanol]
TGI (OVCAR-5): 3.04E−6
GI50 (OVCAR-5; Homo sapiens): 1.68 µM
CC50 (OVCAR-5; [1]): 5.51 µM
Percent Growth (OVCAR-5; Log10 Concentration −4.0): −100%
Percent Growth (OVCAR-5; Log10 Concentration −5.0): −100%
Percent Growth (OVCAR-5; Log10 Concentration −6.0): 93%
Percent Growth (OVCAR-5; Log10 Concentration −7.0): 92%
Percent Growth (OVCAR-5; Log10 Concentration −8.0): 95%
TGI (M14): 2.88E−6
GI50 (M14; Homo sapiens): 1.52 µM
CC50 (M14; [1]): 5.43 µM
Percent Growth (M14; Log10 Concentration −4.0): −100%
Percent Growth (M14; Log10 Concentration −5.0): −98%
Percent Growth (M14; Log10 Concentration −6.0): 83%
Percent Growth (M14; Log10 Concentration −7.0): 97%
Percent Growth (M14; Log10 Concentration −8.0): 95%
TGI (U0-31): 3.46E−6
GI50 (U0-31; Homo sapiens): 1.83 µM
CC50 (U0-31; [1]): 6.54 µM
Percent Growth (U0-31; Log10 Concentration −4.0): −100%
Percent Growth (U0-31; Log10 Concentration −5.0): −83%
Percent Growth (U0-31; Log10 Concentration −6.0): 97%
Percent Growth (U0-31; Log10 Concentration −7.0): 98%
Percent Growth (U0-31; Log10 Concentration −8.0): 87%
